Each compound was assayed against mTOR/GbL/Raptor (mTORC1) (Homo sapiens, UniProt P42345) (assay: mTOR/GbL/Raptor (mTORC1) ELISA Assay). Details: 4EBP1 used as substrate for mTOR/GbL/raptor kinase; read-out: PI3K biochemical IC50 values mTOR.
Type: biochemical
Method: The measurement of mTORC1 enzyme activity was performed in an ELISA assay format following the phosphorylation of 4E-BP1 protein. All experiments were performed in the 384-well format. Generally, 0.5 μL DMSO containing varying concentrations of the test Compound was mixed with 15 μL enzyme solution. Kinase reactions were initiated with the addition of 15 μL of substrates-containing solution. The assay conditions were as follows; 0.2 nM mTORC1, 10 μM ATP and 50 nM NHis-tagged 4E-BPI in 20 mM Hepes, pH 7.2, 1 mM DTT, 50 mM NaCl, 10 mM MnCl2, 0.02 mg/mL BSA, 0.01% CHAPS, 50 mM β-glycerophosphate. Following an incubation of 120 minutes at ambient temperature, 20 μL of the reaction volume was transferred to a Ni-Chelate-coated 384-well plate. The binding step of the 4E-BP1 protein proceeded for 60 minutes, followed by washing 4 times each with 50 μL of Tris-buffered saline solution (TBS). Anti-phospho-4E-BP1 rabbit-IgG (20 μL, 1:5000) in 5% BSA-TBST (0.2% Tween-20 in TBS) was added and further incubated for 60 minutes. Incubation with a secondary HRP-tagged anti-IgG was similarly performed after washing off the primary antibody (4 washes of 50 μL). Following the final wash step with TBST, 20 μL of SuperSignal ELISA Femto (Pierce Biotechnology) was added and the luminescence measured using an EnVision plate reader.

SMILES	IC50 [nM]
COc1ccc2c(N3CCOc4ccc(-c5cnc6nc(C)[nH]c6c5)cc4C3)nc(CN(C)C)nc2c1 [Compound 696]	381
CCNc1nc2ccc(-c3ccc4c(c3)CN(c3ccnc5cc(F)ccc35)CCO4)cc2[nH]1 [Compound 698]	120
CCNc1nc2ccc(-c3ccc4c(c3)CN(c3ncnc(NCC)c3C)CCO4)cc2[nH]1 [Compound 699]	252

Stronger by IC50, values ahead:

IC50 [nM]	SMILES
6	Cc1nc2ncc(-c3ccc4c(c3)CN(c3nc(CN(C)C)nc5c3CC(C)(C)CC5)CCO4)cc2[nH]1 [Compound 693]
16	Cc1nc2cc(-c3ccc4c(c3)CN(c3nc(CN(C)C)nc(C)c3C(C)C)CCO4)cnc2[nH]1 [Compound 694]

Each compound was assayed on pAKT (T308) in MCF-7 cells (PI3Kα E545K) (assay: pAKT (T308) ELISA Assay). Details: Homo sapiens, MCF7; IGF1 stimulation; read-out: pAKT (T308) IC50 MCF-7 PI3Kα E545K IGF1.
Type: cell-based
Method: MCF-7 cells (ATCC) cells were seeded at 24000 cells per well in 96-well plates (Corning, 3904) in DMEM (Cellgro) containing 10% FBS (Cellgro), 1% NEAA (Cellgro) and 1% penicillin-streptomycin (Cellgro). Cells were incubated at 37° C., 5% CO2 for 48 h, and the growth medium was replaced with serum-free DMEM or in medium containing 0.4% BSA. Serial dilutions of the test Compound in 0.3% DMSO (vehicle) were added to the cells and incubated for 3 h. At the end of the incubation period, cells were stimulated for 10 minutes by the addition of L-IGF (Sigma, I-1271) at a final concentration of 100 ng/ml. Afterwards, media was discarded from cell plates and 110 μl/well of cold lysis buffer (see table below) were added. Cell plates were incubated on ice and then put on shaker in 4° C. cold room for 1 h. Two capture plates (Thermo Scientific, Reacti-bind plate, 15042) were prepared for each cell plate by pre-coating with capture Akt antibody from the two sandwich ELISA antibody pairs used (Cell Signaling Technology 7142 and 7144). The Akt capture antibodies were diluted 1:100 in PBS and 100 μl of diluted capture antibody was added per well. Capture plates were incubated at 4 C overnight. Prior to use, capture plates were washed 3 times in TBS containing 0.1% Tween20 (Bio-Rad, 170-6351) (TBST) and blocked in blocking buffer (Thermo Scientific, Starting Block T20, 37543) for 1-2 h at room temperature. After 1 h of cell lysis, 85 μl of cell lysate/well was transferred to the capture plate for detection of pAkt(T308). 15 μl of cell lysate was transferred from same well to the second capture plate for detection of total Akt1. After incubation overnight at 4° C., plates were washed 3 times with 200 μL TBST. Primary antibodies, diluted 1:100 in blocking buffer, were added to the corresponding capture plates for pAkt(T308) (Cell Signaling Technology, 7144) and total Akt1 (Cell Signaling Technology, 7142) detection and incubated at room temperature for 1 h. Plates were washed 3 times with 200 μL of TBST. Goat anti-mouse secondary antibody (Cell Signaling Technology, 7076) conjugated to HRP was diluted 1:1000 in blocking buffer and 100 μl were added to each well and incubated for 30 minutes at room temperature. Plates were then washed 3 times with 200 μL of TBST. 100 μL of SuperSignal ELISA Femto stable peroxidase solution (Thermo Scientific, 37075) was added to each well. After 1 minute incubation, chemiluminescence was read on a Wallac Victor2 1420 multilabel counter. IC50 values were determined based on the ratio of pAkt(T308) to total Akt1 signal for Compound treated wells, normalized to the DMSO-treated control wells.
In another embodiment, the pAKT ELISA Assay was performed by seeding cells onto 96-well plates (Corning, 3904) in their respective growth media at the densities listed in Table 5. Cells were incubated at 37° C., 5% CO2 for 48 h (except MDA-MB-453 cells which were cultured in the absence of CO2). Compounds were serially diluted in DMSO and subsequently diluted in serum-free DMEM. Test compounds were added to cells in serum-free DMEM at a final concentration of 0.3% DMSO and incubated for 3 h. Cells were lysed with 130 μL of ice-cold RIPA lysis buffer (50 mM Tris-HCl, pH 7.5; 0.5% sodium deoxycholic acid; 1% Triton X-100; 0.1% SDS; 150 mM NaCl) with protease and phosphatase inhibitors (1 mM EDTA, 1 mM NaF, 20 mM β-glycerophosphate, 1 mM Na-orthovanadate, Complete-Mini EDTA-free, Roche, 11836170001, and Phosphatase Inhibitor Cocktail I, Sigma, P2850), directly in 96-well plates. Cells were lysed on ice for 60-120 min at 4° C. The supernatants were added directly to capture ELISA plates previously pre-coated with rabbit anti-AKT capture antibody. ELISA assays for pAKT(T308) and total AKT were performed with the pAKT(T308) ELISA kit (Cell Signaling Technology, 7144) and AKT1 ELISA kit (Cell Signaling Technology, 7142). For the pAKT(T308) ELISA, 85 μL of cell lysate was added to each well. […]

SMILES	IC50 [nM]
COc1ccc2c(N3CCOc4ccc(-c5cnc6nc(C)[nH]c6c5)cc4C3)nc(CN(C)C)nc2c1 [Compound 696]	1650
CCNc1nc2ccc(-c3ccc4c(c3)CN(c3ccnc5cc(F)ccc35)CCO4)cc2[nH]1 [Compound 698]	2240
CCNc1nc2ccc(-c3ccc4c(c3)CN(c3ncnc(NCC)c3C)CCO4)cc2[nH]1 [Compound 699]	2400

Further lines, results first:

IC50 [nM]	SMILES
120	Cc1nc2ncc(-c3ccc4c(c3)CN(c3nc(CN(C)C)nc5c3CC(C)(C)CC5)CCO4)cc2[nH]1 [Compound 693]
135	Cc1nc2cc(-c3ccc4c(c3)CN(c3nc(CN(C)C)nc(C)c3C(C)C)CCO4)cnc2[nH]1 [Compound 694]

Same assay, conditions: Homo sapiens, MCF7; Table 7; stimulation line of the head prints PI3Kα; read-out: Cellular pAKT (T308) IC50 PI3KαE545K MCF-7

SMILES	IC50 [nM]
COc1ccc2c(N3CCOc4ccc(-c5cnc6nc(C)[nH]c6c5)cc4C3)nc(CN(C)C)nc2c1 [Compound 696]	1650
CCNc1nc2ccc(-c3ccc4c(c3)CN(c3ccnc5cc(F)ccc35)CCO4)cc2[nH]1 [Compound 698]	2240
CCNc1nc2ccc(-c3ccc4c(c3)CN(c3ncnc(NCC)c3C)CCO4)cc2[nH]1 [Compound 699]	2400

The remaining lines, values ahead:

IC50 [nM]	SMILES
120	Cc1nc2ncc(-c3ccc4c(c3)CN(c3nc(CN(C)C)nc5c3CC(C)(C)CC5)CCO4)cc2[nH]1 [Compound 693]
135	Cc1nc2cc(-c3ccc4c(c3)CN(c3nc(CN(C)C)nc(C)c3C(C)C)CCO4)cnc2[nH]1 [Compound 694]

— patent US20140080810A1 (Exelixis, Inc., priority 2010, published 2014)
